Test results: patent publication US20170035708A1, “USE OF N-(4-TERT-BUTYLBENZYL)-3-CHLORO-N-[2-(4-CHLORO-3-ETHYL-PHENYL)-ETHYL]-2-FLUORO-5-TRIFLUOROMETHYL-BENZAMIDE FOR THE TREATMENT OF EYE DISEASES” (Hoffmann-La Roche Inc., priority 2013, published 2017)

Tested on: Human umbilical vein endothelial cells (HUVEC)
Test: alamarBlue viability assay in HUVECs
Type: cell-based
Conditions: 72 h
Experimental: Human umbilical vein endothelial cells (HUVEC), the growth medium EGM and the basal medium EBM was obtained from Lonza. Additional FCS for the starving medium was used form Invitrogen.
The viability assay with alamarBlue® from Invitrogen was done in 96 well gelatin coated plates from BD.
The tested compounds were dissolved in DMSO at a stock concentration of 10 mM.
VEGF-A165 was obtained from R&D Systems® and has been dissolved at a stock concentration of 100 ug/ml in PBS.
HUVECs cells were maintained in Endothial growth medium (EGM) until Passage 5. For the viability assay HUVECs have been seeded in EBM with 0.5% FCS on gelatin coated 96 well plates at a cell density of 11.000 cells/well. Outer wells were left free and have been filled with medium afterwards. Cells were incubated overnight in a cell culture incubator at 37° C. with 5% CO2. Compounds and VEGF have been diluted in EBM/0.5% FCS to a 20× working concentration. 5 ul of the 20× pre-dilution have been added to the cells. HUVECs which have to be intended to grow under hypoxia conditions have been transferred to a cell culture incubator with 1% O2, 5% CO2 and 37° C. HUVECs grown under normoxia conditions were incubated in a normal cell culture incubator. After 72 h, 11 ul of alamarBlue® have been added to each well of the cells subsequently incubated for 4 h in the cell culture incubator. The absorbance has been detected at 570 nm with a reference wavelength of 600 nm.

Molecule	alamarBlue assay OD 570 nm-600 nm (4.1 nM, hypoxia)	alamarBlue assay OD 570 nm-600 nm (4.1 nM, normoxia)	alamarBlue assay OD 570 nm-600 nm (10.2 nM, hypoxia)	alamarBlue assay OD 570 nm-600 nm (10.2 nM, normoxia)	alamarBlue assay OD 570 nm-600 nm (25.6 nM, hypoxia)	alamarBlue assay OD 570 nm-600 nm (25.6 nM, normoxia)	alamarBlue assay OD 570 nm-600 nm (64 nM, hypoxia)	alamarBlue assay OD 570 nm-600 nm (64 nM, normoxia)	alamarBlue assay OD 570 nm-600 nm (160 nM, hypoxia)	alamarBlue assay OD 570 nm-600 nm (160 nM, normoxia)	alamarBlue assay OD 570 nm-600 nm (400 nM, hypoxia)	alamarBlue assay OD 570 nm-600 nm (400 nM, normoxia)	alamarBlue assay OD 570 nm-600 nm (1000 nM, hypoxia)	alamarBlue assay OD 570 nm-600 nm (1000 nM, normoxia)	alamarBlue assay OD 570 nm-600 nm (2500 nM, hypoxia)	alamarBlue assay OD 570 nm-600 nm (2500 nM, normoxia)	effect on viability of HUVECs (hypoxia)	effect on viability of HUVECs (normoxia)	also measured
CCOC(=O)N1c2ccc(C(F)(F)F)cc2[C@@H](N(Cc2cc(C(F)(F)F)cc(C(F)(F)F)c2)C(=O)OC)C[C@H]1CC [Torcetrapib, [2R, 4S] 4-[(3,5-bis-trifluoromethyl-benzyl)-methoxycarbonyl-amino]-2-ethyl-6-trifluoromethyl-3,4-dihydro-2H-quinoline-1-carboxylic acid ethyl ester]	0.0129	0.0020	0.0200	−0.0004	0.0118	0.0160	0.0111	0.0007	0.0137	0.0194	0.0308	0.0152	−0.0388	0.0001	−0.0784	0.0138	negative effect on the cell viability	no influence of viability could be detected	–
Cc1cc(C)c2c(c1)[C@@H](N(Cc1cc(C(F)(F)F)cc(C(F)(F)F)c1)c1nnn(C)n1)CCCN2C[C@H]1CC[C@H](C(=O)O)CC1 [Evacetrapib, Trans-4-({(5S)-5-[{[3,5-bis(trifluoromethyl)phenyl]methyl}(2-methyl-2H-tetrazol-5-yl)amino]-7,9-dimethyl-2,3,4,5-tetrahydro-1H-benzazepin-1-yl}methyl) cydohexanecarboxylic acid]	0.0141	0.0032	0.0129	0.0158	0.0131	0.0164	0.0076	0.0051	0.0168	0.0227	0.0403	0.0103	0.0564	0.0191	−0.1084	−0.0107	negative effect on the cell viability	no influence of viability could be detected	–
VEGF	–	–	–	–	–	–	–	–	–	–	–	–	–	–	–	–	–	–	viability measured at 570 nm (alamarBlue) (VEGF 1.2 ng/ml, hypoxia): 0.0480; viability measured at 570 nm (alamarBlue) (VEGF 1.2 ng/ml, normoxia): 0.0268; viability measured at 570 nm (alamarBlue) (VEGF 2.3 ng/ml, hypoxia): 0.0679; viability measured at 570 nm (alamarBlue) (VEGF 2.3 ng/ml, normoxia): 0.0394; viability measured at 570 nm (alamarBlue) (VEGF 4.7 ng/ml, hypoxia): 0.0983; viability measured at 570 nm (alamarBlue) (VEGF 4.7 ng/ml, normoxia): 0.0582; viability measured at 570 nm (alamarBlue) (VEGF 9.4 ng/ml, hypoxia): 0.1114; viability measured at 570 nm (alamarBlue) (VEGF 9.4 ng/ml, normoxia): 0.0908; viability measured at 570 nm (alamarBlue) (VEGF 18.8 ng/ml, hypoxia): 0.1039; viability measured at 570 nm (alamarBlue) (VEGF 18.8 ng/ml, normoxia): 0.1265; viability measured at 570 nm (alamarBlue) (VEGF 37.5 ng/ml, hypoxia): 0.0927; viability measured at 570 nm (alamarBlue) (VEGF 37.5 ng/ml, normoxia): 0.1449; viability measured at 570 nm (alamarBlue) (VEGF 75 ng/ml, hypoxia): 0.0906; viability measured at 570 nm (alamarBlue) (VEGF 75 ng/ml, normoxia): 0.1642; viability measured at 570 nm (alamarBlue) (VEGF 150 ng/ml, hypoxia): 0.0825; viability measured at 570 nm (alamarBlue) (VEGF 150 ng/ml, normoxia): 0.1618; survival signal in HUVECs in response to VEGF-A165 (normoxia and hypoxia): dose dependent survival signal
COc1cc(F)c(C(C)C)cc1-c1ccc(C(F)(F)F)cc1CN1C(=O)O[C@H](c2cc(C(F)(F)F)cc(C(F)(F)F)c2)[C@@H]1C [Anacetrapib, (4S,5R)-5-[3,5-bis(trifluoromethyl)phenyl]-3-({2-[4-fluoro-2-methoxy-5-(propan-2-yl)phenyl]-5-(trifluoromethyl)phenyl}methyl)-4-methyl-1,3-oxazolidin-2-one]	0.0003	0.0096	0.0065	0.0170	0.0014	0.0203	0.0093	0.0119	−0.0022	0.0168	0.0260	0.0352	0.0565	0.0662	0.0814	0.0846	positive effect on viability, albeit with lower efficacy	positive effect of viability	–
